According to patent EP0514268A1, “Substituted amino acid azetidinyl pyridone derivatives, their preparation and use as medicines” (LABORATORIOS DEL DR. ESTEVE, S.A., priority 1991, dated 1992):
In brackets after ≈: the same amount, converted by molar mass.

Legend:
[1] = tested on: Serr. marcescens ATCC 13880; assay: Antimicrobial activity, agar dilution; format: cell-based, Serratia marcescens; conditions: Serratia marcescens, ATCC13880, 20 h, Agar Dextrose dilutions, 37°C, 20 heures, read-out: Activité pharmacologique antimicrobienne (concentrations)
Text: (§1) L'activité pharmacologique antimicrobienne de ces composés a été étudiée selon les références exposées ci-dessous.
(§2) Activité pharmacologique antimicrobienne : G.L. Daquet et Y.A. Chabbect, techniques en bactériologie, Vol. 3, Flammarion Médecine-Sciences, Paris 1972, et W.B. Hugo et A.D. Rusell, Pharmaceutical Microbiology, Blackwell Scientific Publications, London, 1977.
(§3) Milieu de culture et solvant : Agar d'antibiotiques n° 1 (Oxoid CM 327) Bouillon de triptone-soja (Oxoid CM 129) Solution Physiologique Ringer 1/4 (Oxoid BR 52) Agar Dextrose (BBL 11165)
(§4) Microorganismes : "Bacillus subtilis" ATCC 6633 "Citrobacter freundii" ATCC 112606 "Enterobacter aerogenes" ATCC 15038 "Enterobacter cloacae" ATCC 23355 "Bacillus cereus" ATCC 1178 "Escherichia coli" ATCC 10799 "Escherichia coli" ATCC 23559 "Klebsiella pneumoniae" ATCC 10031 "Proteus vulgaris" ATCC 8427 "Morg. morganii" ATCC 8019 "Pseudomonas aeruginosa" ATCC 9721 "Pseudomonas aeruginosa" ATCC 10145 "Salmonella typhimurium" ATCC 14028 "Salmonella typhimurium" ATCC 6539 "Serratia marcescens" ATCC 13880 "Shigella flexnerii" ATCC 12022 "Staphylococcusepidermis" ATCC 155-1 "Staphylococcus aureus" ATCC 25178 "Streptococcus faecalis" ATCC 10541.
(§5) Chacun des microorganismes est ensemencé par strie dans des tubes d'Agar d'antibiotiques n° 1, et mis en incubation pendant 20 heures à 37°C. Ensuite, on prend une anse de culture, on ensemence dans un bouillon de Triptone-soja et on incube pendant 20 heures à 37°C. On dilue à 1/4 la culture obtenue avec une solution physiologique Ringer, de façon à obtenir une suspension normalisée de […] pour chaque organisme.
(§6) A partir d'une solution de 100 µg/ml, chaque produit est dilué dans l'Agar Dextrose (préalablement fondu et maintenu à 50°C) par dilutions successives de façon à obtenir les concentrations suivantes : 64-32-16-8-4-2-1-0,5-0,25-0,125 µg de dérivé/ml du milieu.
(§7) Postérieurement, chaque concentration de chaque produit est répartie dans des boîtes de Petri de 10 cm de diamètre, à raison de 10 ml de milieu par boîte et autant de boîtes que de microorganismes à tester.
(§8) Une fois le milieu refroidi, les boîtes sont ensemencées avec les inoculations à raison de 0,4 ml d'inoculation par boîte. On les étend avec une anse de Driglasky et on recueille le surnageant. Les boîtes ensemencées sont incubées à 37°C pendant 20 heures.
(§9) Les résultats obtenus sont décrits dans les tableaux suivants. Les concentrations sont données en µg/ml.

[2] = tested on: Ent. cloacae ATCC 23355; assay: Antimicrobial activity, agar dilution; format: cell-based, Enterobacter cloacae; conditions: Enterobacter cloacae, ATCC23355, 20 h, Agar Dextrose dilutions, 37°C, 20 heures, read-out: Activité pharmacologique antimicrobienne (concentrations)
Text: as §1, §2, §3, §4, §5, §6, §7, §8, §9

[3] = tested on: Staph. aureus ATCC 25178; assay: Antimicrobial activity, agar dilution; format: cell-based, Staphylococcus aureus; conditions: Staphylococcus aureus, ATCC25178, 20 h, Agar Dextrose dilutions, 37°C, 20 heures, read-out: Activité pharmacologique antimicrobienne (concentrations)
Text: as §1, §2, §3, §4, §5, §6, §7, §8, §9

[4] = tested on: Strep. faecalis ATCC 10541; assay: Antimicrobial activity, agar dilution; format: cell-based, Streptococcus faecalis; conditions: Enterococcus faecalis, ATCC10541, 20 h, Agar Dextrose dilutions, 37°C, 20 heures, read-out: Activité pharmacologique antimicrobienne (concentrations)
Text: as §1, §2, §3, §4, §5, §6, §7, §8, §9

[5] = tested on: Sal. typhimurium ATCC 14028; assay: Antimicrobial activity, agar dilution; format: cell-based, Salmonella typhimurium; conditions: Salmonella enterica, 20 h, Agar Dextrose dilutions, 37°C, 20 heures, read-out: Activité pharmacologique antimicrobienne (concentrations)
Text: as §1, §2, §3, §4, §5, §6, §7, §8, §9

[6] = tested on: Citr. freundii ATCC 11606; assay: Antimicrobial activity, agar dilution; format: cell-based, Citrobacter freundii; conditions: Citrobacter freundii, ATCC11606, 20 h, Agar Dextrose dilutions, 37°C, 20 heures, read-out: Activité pharmacologique antimicrobienne (concentrations)
Text: as §1, §2, §3, §4, §5, §6, §7, §8, §9

[7] = tested on: Sal. typhi ATCC 6539; assay: Antimicrobial activity, agar dilution; format: cell-based; conditions: Salmonella enterica, 20 h, read-out: Activité pharmacologique antimicrobienne (concentrations)
Text: as §1, §2, §3, §4, §5, §6, §7, §8, §9

[8] = tested on: Ps. aeruginosa ATCC 9721; assay: Antimicrobial activity, agar dilution; format: cell-based; conditions: Pseudomonas aeruginosa, ATCC9721, 20 h, Agar Dextrose dilutions, 37°C, 20 heures, read-out: Activité pharmacologique antimicrobienne (concentrations)
Text: as §1, §2, §3, §4, §5, §6, §7, §8, §9

[9] = tested on: Escherichia coli ATCC 23559; assay: Antimicrobial activity, agar dilution; format: cell-based; conditions: Escherichia coli, ATCC23559, 20 h, Agar Dextrose dilutions, 37°C, 20 heures, read-out: Activité pharmacologique antimicrobienne (concentrations)
Text: as §1, §2, §3, §4, §5, §6, §7, §8, §9

[10] = tested on: Morg. morganii ATCC 8019; assay: Antimicrobial activity, agar dilution; format: cell-based; conditions: Morganella morganii, ATCC8019, 20 h, Agar Dextrose dilutions, 37°C, 20 heures, read-out: Activité pharmacologique antimicrobienne (concentrations)
Text: as §1, §2, §3, §4, §5, §6, §7, §8, §9

[11] = tested on: Proteus vulgaris ATCC 8427; assay: Antimicrobial activity, agar dilution; format: cell-based; conditions: Proteus vulgaris, ATCC8427, 20 h, Agar Dextrose dilutions, 37°C, 20 heures, read-out: Activité pharmacologique antimicrobienne (concentrations)
Text: as §1, §2, §3, §4, §5, §6, §7, §8, §9

[12] = tested on: Bacillus cereus ATCC 11778; assay: Antimicrobial activity, agar dilution; format: cell-based; conditions: Bacillus cereus, ATCC11778, 20 h, Agar Dextrose dilutions, 37°C, 20 heures, read-out: Activité pharmacologique antimicrobienne (concentrations)
Text: as §1, §2, §3, §4, §5, §6, §7, §8, §9

[13] = tested on: Ps. aeruginosa ATCC 10145; assay: Antimicrobial activity, agar dilution; format: cell-based; conditions: Pseudomonas aeruginosa, ATCC10145, 20 h, Agar Dextrose dilutions, 37°C, 20 heures, read-out: Activité pharmacologique antimicrobienne (concentrations)
Text: as §1, §2, §3, §4, §5, §6, §7, §8, §9

[14] = tested on: Staph. epidermidis ATCC 155-1; assay: Antimicrobial activity, agar dilution; format: cell-based; conditions: Staphylococcus epidermidis, ATCC155, 20 h, Agar Dextrose dilutions, 37°C, 20 heures, read-out: Activité pharmacologique antimicrobienne (concentrations)
Text: as §1, §2, §3, §4, §5, §6, §7, §8, §9

[15] = tested on: Escherichia coli ATCC 10799; assay: Antimicrobial activity, agar dilution; format: cell-based; conditions: Escherichia coli, ATCC10799, 20 h, Agar Dextrose dilutions, 37°C, 20 heures, read-out: Activité pharmacologique antimicrobienne (concentrations)
Text: as §1, §2, §3, §4, §5, §6, §7, §8, §9

[16] = tested on: Bacillus subtilis ATCC 6633; assay: Antimicrobial activity, agar dilution; format: cell-based; conditions: ATCC6633, 20 h, Agar Dextrose dilutions, 37°C, 20 heures, read-out: Activité pharmacologique antimicrobienne (concentrations)
Text: as §1, §2, §3, §4, §5, §6, §7, §8, §9

[17] = tested on: Shigella flexnerii ATCC 12022; assay: Antimicrobial activity, agar dilution; format: cell-based; conditions: ATCC12022, 20 h, Agar Dextrose dilutions, 37°C, 20 heures, read-out: Activité pharmacologique antimicrobienne (concentrations)
Text: as §1, §2, §3, §4, §5, §6, §7, §8, §9

[18] = tested on: Kleb. pneumoniae ATCC 10031; assay: Antimicrobial activity, agar dilution; format: cell-based, Klebsiella pneumoniae; conditions: Klebsiella pneumoniae, ATCC10031, 20 h, Agar Dextrose dilutions, 37°C, 20 heures, read-out: Activité pharmacologique antimicrobienne (concentrations)
Text: as §1, §2, §3, §4, §5, §6, §7, §8, §9

[19] = tested on: Ent. aerogenes ATCC 15038; assay: Antimicrobial activity, agar dilution; format: cell-based, Enterobacter aerogenes; conditions: Klebsiella aerogenes, ATCC15038, 20 h, Agar Dextrose dilutions, 37°C, 20 heures, read-out: Activité pharmacologique antimicrobienne (concentrations)
Text: as §1, §2, §3, §4, §5, §6, §7, §8, §9

[20] = Solubility in water and at pH 7.4; format: physicochemical
Text: Un grand nombre des composés de l'invention manifestent une augmentation de la solubilité dans l'eau ainsi que de la solubilité à pH 7,4 lorsqu'on compare avec les composés de référence. L'augmentation de solubilité au pH physiologique peut favoriser l'absorption du produit et la solubilité élevée dans l'eau permet l'administration du composé par voie parentérale.

With `CCn1cc(C(=O)O)c(=O)c2cnc(N3CCNCC3)nc21` [Acide pipémidique, reference compound] the MIC [1] was 16 µg/mL (≈ 52.7 µM), the MIC [2] was 8 µg/mL (≈ 26.4 µM) and the MIC [3] was 64 µg/mL (≈ 211 µM). For the same compound, the MIC [4] was greater than 64 µg/mL, the MIC [5] was 8 µg/mL (≈ 26.4 µM) and the MIC [6] was 4 µg/mL (≈ 13.2 µM). It also gave an MIC [7] of 4 µg/mL (≈ 13.2 µM), an MIC [8] of 32 µg/mL (≈ 105 µM) and an MIC [9] of 2 µg/mL (≈ 6.59 µM). It also gave an MIC [10] of 8 µg/mL (≈ 26.4 µM), an MIC [11] of 16 µg/mL (≈ 52.7 µM) and an MIC [12] of 16 µg/mL (≈ 52.7 µM). The MIC [13] was 32 µg/mL (≈ 105 µM), the MIC [14] was 64 µg/mL (≈ 211 µM) and the MIC [15] was 16 µg/mL (≈ 52.7 µM). The MIC [16] was 8 µg/mL (≈ 26.4 µM), the MIC [17] was 4 µg/mL (≈ 13.2 µM) and the MIC [18] was 2 µg/mL (≈ 6.59 µM). It also gave an MIC [19] of 32 µg/mL (≈ 105 µM).
`C[C@H]1[C@H](N)CN1c1nc2c(cc1F)c(=O)c(C(=O)O)cn2C1CC1` [Exemple 1a, acide 7-[(2S,3R)-2-méthyl-3-amino-1-azétidinyl]-1-cyclopropyl-6-fluoro-1,4-dihydro-4-oxo-1,8-naphtyridine-3-carboxylique, reference compound] gave a solubility ([20]; pH 7) of 16.5 µg/mL (≈ 49.6 µM) and a solubility ([20]; water) of 23 µg/mL (≈ 69.2 µM).
`NC1CN(c2nc3c(cc2F)c(=O)c(C(=O)O)cn3-c2ccc(F)cc2F)C1` [Exemple 1b, acide 7-(3-amino-1-azétidinyl)-1-(2,4-difluorophényl)-6-fluoro-1,4-dihydro-4-oxo-1,8-naphtyridine-3-carboxylique, reference compound] showed a solubility ([20]; pH 7) of 3.7 µg/mL (≈ 9.48 µM) and a solubility ([20]; water) of 3 µg/mL (≈ 7.69 µM).
